Data taken from patent publication US20170369444A1, “INHIBITORS OF HISTONE DEMETHYLASES” (Gilead Sciences, Inc., priority 2014, published 2017).

Legend:
Assay type in all cases: biochemical
[1] = target: T1, KDM4C (JMJD2C) (Homo sapiens, UniProt Q9H3R0); assay: Histone lysine demethylase AlphaLISA assay, KDM4C; conditions: in vitro enzyme, read-out: KDM4C IC50 (HDME Inhibition)
T1 construct: 1-349; host or cells: E. coli
T1 sequence (Q9H3R0 1-349): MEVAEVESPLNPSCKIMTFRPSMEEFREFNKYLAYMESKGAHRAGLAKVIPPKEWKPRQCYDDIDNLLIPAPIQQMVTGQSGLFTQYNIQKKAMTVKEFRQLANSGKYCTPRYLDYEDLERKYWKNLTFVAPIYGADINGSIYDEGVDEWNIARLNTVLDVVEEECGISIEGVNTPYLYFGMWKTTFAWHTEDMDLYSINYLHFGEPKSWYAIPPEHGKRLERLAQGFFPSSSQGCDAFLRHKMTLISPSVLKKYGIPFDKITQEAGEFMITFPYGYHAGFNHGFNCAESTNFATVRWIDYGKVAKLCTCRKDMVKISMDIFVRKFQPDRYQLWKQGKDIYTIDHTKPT
Description: (§1) Histone lysine demethylase AlphaLISA assays are performed to determine IC50 values. […] Assays are performed analogously to the protocol described by PerkinElmer (Roy et al. PerkinElmer Technical Note: AlphaLISA #12, April 2011).
(§2) Assays are performed analogously to the protocol described by PerkinElmer (Roy et al. PerkinElmer Technical Note: AlphaLISA #12, April 2011).
(§3) Enzymes (final assay concentration 0.1-2.5 nM) are dissolved in enzyme buffer and incubated for 10 min before 5 μL is added to 5 μL 3% DMSO solutions of compounds in enzyme buffer, incubated for another 10 minutes, before 5 μL substrate solution is added and the reaction mixture is incubated at room temperature. 10 μL acceptor beads, suspended Epigenetic Buffer (Perkin Elmer AL008) from stock, are added and the suspension is incubated in the dark at room temperature, before 10 μL suspension of streptavidin donor beads (Perkin Elmer 6760002) in Epigenetic Buffer is added. After incubation at room temperature in the dark the plates are read.
(§4) Substrate solution: Substrate (final assay concentration 50-200 nM), 50 mM Hepes (pH 7.4-8.0), 0.003% Tween-20, 0.1% BS, 25 μM L-Asc, 10 μM α-KG. Enzyme Buffer: 50 mM Hepes (pH 7.4-8.0), 0.003% Tween-20, 0.1% BSA; 5 μM (NH4)2Fe(SO4)2

[2] = target: PHF8 (KDM7) (Homo sapiens, UniProt Q9UPP1); assay: Histone lysine demethylase AlphaLISA assay, PHF8; conditions: in vitro enzyme, read-out: PHF8 IC50 (HDME Inhibition)
PHF8 (KDM7), sequence (Q9UPP1 whole entry): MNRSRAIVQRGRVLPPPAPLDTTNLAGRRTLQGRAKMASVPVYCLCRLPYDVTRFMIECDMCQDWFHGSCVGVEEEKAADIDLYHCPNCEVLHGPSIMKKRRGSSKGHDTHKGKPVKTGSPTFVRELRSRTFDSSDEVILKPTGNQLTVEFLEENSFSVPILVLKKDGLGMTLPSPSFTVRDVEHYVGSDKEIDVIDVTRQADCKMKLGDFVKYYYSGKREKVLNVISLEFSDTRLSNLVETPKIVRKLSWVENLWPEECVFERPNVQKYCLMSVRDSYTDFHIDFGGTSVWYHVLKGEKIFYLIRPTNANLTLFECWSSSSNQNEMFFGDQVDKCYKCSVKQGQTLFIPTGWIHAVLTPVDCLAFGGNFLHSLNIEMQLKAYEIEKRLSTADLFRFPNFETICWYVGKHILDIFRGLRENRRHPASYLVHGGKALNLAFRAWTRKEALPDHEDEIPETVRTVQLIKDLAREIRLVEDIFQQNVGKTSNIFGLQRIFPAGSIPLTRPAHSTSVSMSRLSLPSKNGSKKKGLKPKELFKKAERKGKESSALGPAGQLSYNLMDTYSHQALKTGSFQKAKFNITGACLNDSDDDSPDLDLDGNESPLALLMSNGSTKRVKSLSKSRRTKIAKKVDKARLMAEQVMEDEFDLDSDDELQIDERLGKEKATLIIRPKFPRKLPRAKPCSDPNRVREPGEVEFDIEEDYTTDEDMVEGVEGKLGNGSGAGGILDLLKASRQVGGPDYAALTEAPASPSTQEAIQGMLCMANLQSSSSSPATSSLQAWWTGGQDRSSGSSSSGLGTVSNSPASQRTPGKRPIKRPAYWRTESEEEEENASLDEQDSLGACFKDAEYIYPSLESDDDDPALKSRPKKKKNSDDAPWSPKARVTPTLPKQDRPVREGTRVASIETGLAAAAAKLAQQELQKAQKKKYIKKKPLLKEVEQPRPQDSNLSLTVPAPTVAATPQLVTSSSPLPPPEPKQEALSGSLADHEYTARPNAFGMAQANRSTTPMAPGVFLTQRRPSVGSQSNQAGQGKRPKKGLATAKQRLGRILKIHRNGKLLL
Description: as §1, §2, §3, §4

[3] = target: T2, KDM5B (PLU-1) (Homo sapiens, UniProt Q9UGL1); assay: Histone lysine demethylase AlphaLISA assay, KDM5B; conditions: in vitro enzyme, read-out: KDM5B IC50 (HDME Inhibition)
T2 construct: 1-809; host or cells: E. coli
T2 sequence (Q9UGL1 1-809): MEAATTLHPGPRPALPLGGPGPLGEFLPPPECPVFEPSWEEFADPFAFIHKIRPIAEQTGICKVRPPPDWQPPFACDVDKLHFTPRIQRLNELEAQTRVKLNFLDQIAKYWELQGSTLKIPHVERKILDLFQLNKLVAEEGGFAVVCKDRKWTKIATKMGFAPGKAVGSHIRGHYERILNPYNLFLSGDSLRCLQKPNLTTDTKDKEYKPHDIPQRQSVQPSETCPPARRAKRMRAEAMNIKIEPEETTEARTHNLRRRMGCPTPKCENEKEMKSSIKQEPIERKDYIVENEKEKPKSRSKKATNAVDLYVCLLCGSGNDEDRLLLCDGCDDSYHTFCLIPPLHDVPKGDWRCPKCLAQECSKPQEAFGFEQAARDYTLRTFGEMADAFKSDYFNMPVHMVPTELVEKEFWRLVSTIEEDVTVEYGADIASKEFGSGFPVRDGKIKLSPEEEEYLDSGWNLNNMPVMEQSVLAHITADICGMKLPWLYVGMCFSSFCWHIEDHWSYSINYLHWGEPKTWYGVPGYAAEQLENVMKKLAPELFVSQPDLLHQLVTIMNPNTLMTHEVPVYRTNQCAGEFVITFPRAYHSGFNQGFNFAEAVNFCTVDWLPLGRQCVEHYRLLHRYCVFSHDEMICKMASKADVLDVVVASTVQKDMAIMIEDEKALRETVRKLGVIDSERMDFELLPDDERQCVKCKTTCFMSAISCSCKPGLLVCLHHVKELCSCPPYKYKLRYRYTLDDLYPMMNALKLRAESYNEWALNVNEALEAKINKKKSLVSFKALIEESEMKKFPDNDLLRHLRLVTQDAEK
Description: as §1, §2, §3, §4

[4] = target: T3, KDM2B (FBXL10) (Homo sapiens, UniProt Q8NHM5); assay: Histone lysine demethylase AlphaLISA assay, KDM2B; conditions: in vitro enzyme, read-out: KDM2B IC50 (HDME Inhibition)
T3 construct: 1-650; purchased BPS Bioscience, US; host or cells: Bac (baculovirus/insect cells)
T3 sequence (Q8NHM5 1-650): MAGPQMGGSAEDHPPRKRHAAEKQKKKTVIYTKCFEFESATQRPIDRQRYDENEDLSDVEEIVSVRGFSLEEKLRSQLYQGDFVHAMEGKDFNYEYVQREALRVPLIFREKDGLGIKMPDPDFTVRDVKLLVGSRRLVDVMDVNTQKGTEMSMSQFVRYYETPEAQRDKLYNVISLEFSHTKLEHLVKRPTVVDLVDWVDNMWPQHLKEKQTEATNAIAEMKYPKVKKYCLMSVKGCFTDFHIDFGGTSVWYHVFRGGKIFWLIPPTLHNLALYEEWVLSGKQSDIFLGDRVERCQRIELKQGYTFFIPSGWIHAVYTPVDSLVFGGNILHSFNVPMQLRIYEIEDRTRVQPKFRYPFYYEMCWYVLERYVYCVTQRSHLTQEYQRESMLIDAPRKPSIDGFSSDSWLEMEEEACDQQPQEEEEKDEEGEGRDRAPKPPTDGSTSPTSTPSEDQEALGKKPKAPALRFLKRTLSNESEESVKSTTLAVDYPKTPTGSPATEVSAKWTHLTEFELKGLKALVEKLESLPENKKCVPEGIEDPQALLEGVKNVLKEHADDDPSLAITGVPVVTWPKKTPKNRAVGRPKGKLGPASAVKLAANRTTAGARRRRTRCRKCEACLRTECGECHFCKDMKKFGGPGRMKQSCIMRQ
Description: as §1, §2, §3, §4

[5] = target: T4, KDM6A (UTX) (Homo sapiens, UniProt O15550); assay: Histone lysine demethylase AlphaLISA assay, KDM6A; conditions: in vitro enzyme, read-out: KDM6A IC50 (HDME Inhibition)
T4 construct: 919-1401; host or cells: E. coli
T4 sequence (O15550 919-1401): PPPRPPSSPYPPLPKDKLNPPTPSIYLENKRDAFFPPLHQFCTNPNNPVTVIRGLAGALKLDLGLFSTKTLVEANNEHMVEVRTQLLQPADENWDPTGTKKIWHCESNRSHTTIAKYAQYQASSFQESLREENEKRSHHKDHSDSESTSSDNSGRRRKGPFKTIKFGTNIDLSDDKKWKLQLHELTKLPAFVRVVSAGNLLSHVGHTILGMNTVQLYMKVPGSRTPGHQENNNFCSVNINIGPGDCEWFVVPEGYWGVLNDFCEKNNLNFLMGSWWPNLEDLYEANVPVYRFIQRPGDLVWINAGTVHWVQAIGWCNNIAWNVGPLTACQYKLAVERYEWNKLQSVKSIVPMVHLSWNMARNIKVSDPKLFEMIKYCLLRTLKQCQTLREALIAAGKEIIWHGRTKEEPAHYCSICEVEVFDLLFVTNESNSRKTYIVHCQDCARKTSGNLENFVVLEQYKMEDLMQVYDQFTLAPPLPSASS
Description: as §1, §2, §3, §4

| Compound | IC50 [1] [µM] | IC50 [2] [µM] | IC50 [3] [µM] | IC50 [4] [µM] | IC50 [5] [µM] |
| --- | --- | --- | --- | --- | --- |
| O=C(O)c1ccnc(CNC2CCCn3ccnc32)c1 (stereo not shown) [Compound 90, 2-[({5H,6H,7H,8H-imidazo[1,2-a]pyridin-8-yl}amino)methyl]pyri-dine-4-carboxylic acid] | 0.25 to 2.5 | < 0.25 | < 0.25 |  |  |
| O=C(O)c1ccnc(CNC2CCc3c(Cc4ccccc4)ccnc32)c1 (stereo not shown) [Compound 92, 2-[({4-benzyl-5H,6H,7H-cyclopenta[b]pyridin-7-yl}amino)methyl]pyri-dine-4-carboxylic acid] |  | 0.25 to 2.5 | < 0.25 | 0.25 to 2.5 | > 2.5 |
| O=C(O)c1ccnc(CN2CCCC[C@@H]2CC(=O)N2CCCCC2)c1 [Compound 72, 2-{[(2R)-2-[2-oxo-2-(piperidin-1-yl)ethyl]piperidin-1-yl]methyl}pyridine-4-carboxylic acid] | > 2.5 |  | > 2.5 |  | > 2.5 |
| CC(N[C@@H](C)C(=O)NCc1ccc([N+](=O)[O-])cc1)c1cc(C(=O)O)ccn1 (stereo partly drawn) [Compound 5, 2-(1-{[(1S)-1-{[(4-nitrophenyl)methyl]carbamoyl}ethyl]amino}ethyl)pyridine-4-carboxylic acid] | > 2.5 | > 2.5 | > 2.5 |  |  |
| O=C(O)c1ccnc(CNC2CCc3c(Br)ccnc32)c1 (stereo not shown) [Compound 91, 2-[({4-bromo-5H,6H,7H-cyclopenta[b]pyridin-7-yl}amino)methyl]pyri-dine-4-carboxylic acid] | 0.25 to 2.5 |  | < 0.25 |  |  |
| CCNC(=O)C1CCN(Cc2cc(C(=O)O)ccn2)CC1 [Compound 75, 2-{[4-(ethylcarbamoyl)piper-idin-1-yl]methyl} pyridine-4-carboxylic acid] |  | 0.25 to 2.5 | > 2.5 | 0.25 to 2.5 | > 2.5 |
| O=C(O)c1ccnc(CN2CCCC(C3CCCCC3)C2CO)c1 (stereo not shown) [Compound 62, 2-{[3-cyclohexyl-2-(hydroxymethyl)piperidin-1-yl]methyl}pyridine-4-carboxylic acid] | > 2.5 |  | 0.25 to 2.5 |  |  |
| CC(N[C@@H](C)C(=O)NCc1ccccc1CO)c1cc(C(=O)O)ccn1 (stereo partly drawn) [Compound 19, 2-(1-{[(1S)-1-({[2-(hydroxymethyl)phenyl]methyl}carbamoyl)ethyl]amino}ethyl) pyridine-4-carboxylic acid] |  | 0.25 to 2.5 |  | 0.25 to 2.5 | > 2.5 |
| CCNC(=O)C1CN(Cc2cc(C(=O)O)ccn2)C1 [Compound 68, 2-{[3-(ethylcarbamoyl)azetidin-1-yl]methyl}pyridine-4-carboxylic acid] | 0.25 to 2.5 | < 0.25 | 0.25 to 2.5 |  |  |
| CC(N[C@@H](C)c1nccs1)c1cc(C(=O)O)ccn1 (stereo partly drawn) [Compound 28, 2-(1-{[(1S)-1-(1,3-thiazol-2-yl)ethyl]amino}ethyl) pyridine-4-carboxylic acid] |  | 0.25 to 2.5 |  | 0.25 to 2.5 | > 2.5 |
| CC(C)C[C@@H](CO)NCc1cc(C(=O)O)ccn1 [Compound 61, (S)-2-{[(1-hydroxy-4-methylpentan-2-yl)amino]methyl}pyri-dine-4-carboxylic acid] | < 0.25 |  | < 0.25 |  |  |
| O=C(O)c1ccnc(CN2CCCC(c3ccccc3)C2CO)c1 (stereo not shown) [Compound 63, 2-{[2-(hydroxymethyl)-3-phenylpiperidin-1-yl]methyl}pyridine-4-carboxylic acid] | > 2.5 |  | > 2.5 |  |  |
| COc1ccc([C@@H](C)N2CC[C@@H](CNCc3cc(C(=O)O)ccn3)C2=O)cc1 [Compound 78, 2-[({[(3S)-1-[(1R)-1-(4-methoxyphenyl)ethyl]-2-oxopyrrolidin-3-yl]methyl}amino)methyl]pyridine-4-carboxylic acid] |  | < 0.25 |  | < 0.25 | > 2.5 |
| O=C(O)c1ccnc(CN2CCC(c3ccc(F)cc3)n3ccnc3C2)c1 (stereo not shown) [Compound 50, 2-{[5-(4-fluorophenyl)-5H,6H,7H,8H,9H-imidazo[1,2-a][1,4]diazepin-8-yl]methyl}pyridine-4-carboxylic acid] | > 2.5 | > 2.5 | 0.25 to 2.5 |  |  |
| CC(C)(C)c1nc2ccccn2c1CNCc1cc(C(=O)O)ccn1 [Compound 88, 2-{[({2-tert-butylimidazo[1,2-a]pyridin-3-yl}methyl)amino]methyl}pyridine-4-carboxylic acid] |  | < 0.25 | < 0.25 | 0.25 to 2.5 | > 2.5 |
| CCN(CC)C(=O)CCN(CCNC(C)=O)Cc1cc(C(=O)O)ccn1 [Compound 27, 2-({[2-(diethylcarbamoyl)ethyl](2-acetamidoethyl)amino}methyl)pyridine-4-carboxylic acid] |  | 0.25 to 2.5 | 0.25 to 2.5 | 0.25 to 2.5 | > 2.5 |
| CC(N[C@@H](C)C(=O)NCc1cccc(C(=O)O)c1)c1cc(C(=O)O)ccn1 (stereo partly drawn) [Compound 1, 2-(1-{[(1S)-1-{[(3-carboxyphenyl)methyl]carbamoyl}ethyl]amino}ethyl)pyridine-4-carboxylic acid] | > 2.5 |  |  |  | > 2.5 |
| O=C(O)c1ccnc(CN2CCCC[C@H]2CC(=O)N2CCCCC2)c1 [Compound 70, 2-{[(2S)-2-[2-oxo-2-(piperidin-1-yl)ethyl]piperidin-1-yl]methyl}pyridine-4-carboxylic acid] | > 2.5 | > 2.5 |  |  |  |
| C=Cc1ccnc2c1CCC2NCc1cc(C(=O)O)ccn1 (stereo not shown) [Compound 100, 2-[({4-ethenyl-5H,6H,7H-cyclopenta[b]pyridin-7-yl}amino)methyl]pyri-dine-4-carboxylic acid] | 0.25 to 2.5 | < 0.25 | < 0.25 |  |  |
| CC(N[C@@H](C)C(=O)NCc1ccccc1O)c1cc(C(=O)O)ccn1 (stereo partly drawn) [Compound 6, 2-(1-{[(1S)-1-{[(2-hydroxyphenyl)methyl]carbamoyl}ethyl]amino}ethyl)pyridine-4-carboxylic acid] |  | 0.25 to 2.5 |  | 0.25 to 2.5 | > 2.5 |
